Values quoted from earlier work in patent US11813363B1, “Concentrated nutritional or supplemental compound for intestinal, gut-brain axis and neurobiological homeostasis through calibrated absorption including neurotransmitter or any equilibrating compound release to treat or mitigate disease and co-morbidities, particularly obesity and malnourishment” (priority 2022, dated 2023).

Conditions: oral ingestion; reddish-orange color of urine

## Cl.Nc1ccc(/N=N/c2ccccc2)c(N)n1 [phenazopyridine, phenazopyridine hydrochloride]
  time to visible urine color change after ingestion (earliest): ≥ 20 min
  time to visible urine color change after ingestion (latest): within one hour
